Laboratory results taken from BindingDB's records for patent US11529321 (Wigen Biomedicine Technology (Shanghai), 2022).

Molecular target: Microtubule-associated proteins 1A/1B light chain 3B (Homo sapiens, UniProt Q9GZQ8)
Experiment: Molecular Level Experiments of Targeting LC3B

IC50 | Compound
in the range around 9 µM | O=C1CC(c2ccccc2)CC(=O)C1=CNCCN1CCN(C(=S)Nc2cccc(Cl)c2)CC1 (stereo not drawn) [US11529321, Compound 31]
in the range around 9 µM | C=CCNC(=S)N1CCN(CCNC=C2C(=O)CC(c3ccco3)CC2=O)CC1 (stereo not drawn) [US11529321, Compound 39]
in the range around 9 µM | CCCCCC(=O)N1CCN(CCNC=C2C(=O)CC(c3ccco3)CC2=O)CC1 (stereo not drawn) [US11529321, Compound 58]
